From article PMC7325174 (bioRxiv, 2020)

Experiments:
SARS-CoV-2 = assay type: cell-based
Vero E6 cells = details: parallel plates

Structure (SMILES)	effect on SARS-CoV-2 viral RNA in supernatants / replication (in words) (SARS-CoV-2)	potency at 48 hpi compared with 24 hpi (in words) (SARS-CoV-2)	IC50 (SARS-CoV-2; read-out: IC50, SARS-CoV-2 viral RNA in supernatants) [µM]	compound cytotoxicity (in words) (Vero E6 cells)
CCOC(=O)[C@H]1O[C@@H]1C(=O)N[C@@H](CC(C)C)C(=O)NCCC(C)C [E64D]	substantially decreased	less potent	3.3	minimal cytotoxicity
CC(C)CN(C[C@@H](O)[C@H](Cc1ccccc1)NC(=O)O[C@H]1CCOC1)S(=O)(=O)c1ccc(N)cc1 [amprenavir]	modestly inhibited	–	–	without apparent cytotoxicity
Cc1nc2ccc(Br)cc2c(-c2ccc(Cl)cc2)c1C(OC(C)(C)C)C(=O)O (centres unmarked) [ALLINI-2]	modestly inhibited	–	–	without apparent cytotoxicity
Cc1ccnc2c1NC(=O)c1cccnc1N2C1CC1 [nevirapine]	modestly inhibited	–	–	without apparent cytotoxicity
CCC(CC)COC(=O)[C@H](C)N[P@](=O)(OC[C@H]1O[C@@](C#N)(c2ccc3c(N)ncnn23)[C@H](O)[C@@H]1O)Oc1ccccc1 [remdesivir]	substantially decreased	–	–	–
Cc1cccc(/C=N/Nc2cc(N3CCOCC3)nc(OCCc3ccccn3)n2)c1 [apilimod]	substantially decreased	less potent	–	minimal cytotoxicity
